Measured values taken from the supplement of paper PMC10307832.

Legend:
Assay in all cases: relative viability (nuclei count vs DMSO), 5 days (fraction); higher = more cells survive
[1] = tested on: NCI-H2347
How it was run: (§1)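 Lung cancer cell lines, seeded in 1536-well plates, were treated the following day by pin tool with a single drug or with five library-drug doses (not always all listed) in √10 steps on top of a fixed anchor-drug dose. Cells were fixed and nuclei stained in one step after 5 days, and nuclei were counted. Relative viability is the nuclei count for treated wells divided by that for vehicle wells, reported as medians of duplicate plates.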

[2] = tested on: UMC-11
How it was run: as §1

[3] = tested on: HCC-15
How it was run: as §1

[4] = tested on: SW 1573
How it was run: as §1

[5] = tested on: NCI-H2126
How it was run: as §1

[6] = tested on: LU99A
How it was run: as §1

[7] = tested on: HOP-62
How it was run: as §1

[8] = tested on: COR-L23
How it was run: as §1

[9] = tested on: HCC-44
How it was run: as §1

[10] = tested on: NCI-H2023
How it was run: as §1

[11] = tested on: NCI-H650
How it was run: as §1

[12] = tested on: NCI-H1651
How it was run: as §1

[13] = tested on: NCI-H1355
How it was run: as §1

[14] = tested on: HARA
How it was run: as §1

[15] = tested on: LC-2-ad
How it was run: as §1

[16] = tested on: ABC-1
How it was run: as §1

[17] = tested on: NCI-H1915
How it was run: as §1

[18] = tested on: NCI-H2085
How it was run: as §1

[19] = tested on: PC-14
How it was run: as §1

[20] = tested on: NCI-H838
How it was run: as §1

[21] = tested on: NCI-H1993
How it was run: as §1

[22] = tested on: EPLC-272H
How it was run: as §1

## COc1cc2nccc(Oc3ccc(NC(=O)Nc4cc(C)on4)c(Cl)c3)c2cc1OC [Tivozanib] + CC(=O)c1c(C)c2cnc(Nc3ccc(N4CCNCC4)cn3)nc2n(C2CCCC2)c1=O [Palbociclib] (partner 0.5 µM)
[1]; first compound 0.005 µM
  relative viability: 0.48
[1]; first compound 0.01581 µM
  relative viability: 0.424
[1]; first compound 0.05 µM
  relative viability: 0.462
[1]; first compound 0.1581 µM
  relative viability: 0.478
[1]; first compound 0.5 µM
  relative viability: 0.422
[2]; first compound 0.005 µM
  relative viability: 0.288
[2]; first compound 0.01581 µM
  relative viability: 0.327
[2]; first compound 0.05 µM
  relative viability: 0.32
[2]; first compound 0.1581 µM
  relative viability: 0.304
[2]; first compound 0.5 µM
  relative viability: 0.307
[3]; first compound 0.005 µM
  relative viability: 0.689
[3]; first compound 0.01581 µM
  relative viability: 0.768
[3]; first compound 0.05 µM
  relative viability: 0.767
[3]; first compound 0.1581 µM
  relative viability: 0.734
[3]; first compound 0.5 µM
  relative viability: 0.672
[4]; first compound 0.005 µM
  relative viability: 0.344
[4]; first compound 0.01581 µM
  relative viability: 0.412
[4]; first compound 0.05 µM
  relative viability: 0.418
[4]; first compound 0.1581 µM
  relative viability: 0.391
[4]; first compound 0.5 µM
  relative viability: 0.344
[5]; first compound 0.005 µM
  relative viability: 0.384
[5]; first compound 0.01581 µM
  relative viability: 0.345
[5]; first compound 0.05 µM
  relative viability: 0.352
[5]; first compound 0.1581 µM
  relative viability: 0.337
[5]; first compound 0.5 µM
  relative viability: 0.371
[6]; first compound 0.005 µM
  relative viability: 0.431
[6]; first compound 0.01581 µM
  relative viability: 0.412
[6]; first compound 0.05 µM
  relative viability: 0.429
[6]; first compound 0.1581 µM
  relative viability: 0.306
[6]; first compound 0.5 µM
  relative viability: 0.408
[7]; first compound 0.005 µM
  relative viability: 0.499
[7]; first compound 0.01581 µM
  relative viability: 0.419
[7]; first compound 0.05 µM
  relative viability: 0.495
[7]; first compound 0.1581 µM
  relative viability: 0.438
[7]; first compound 0.5 µM
  relative viability: 0.397
[8]; first compound 0.005 µM
  relative viability: 0.246
[8]; first compound 0.01581 µM
  relative viability: 0.294
[8]; first compound 0.05 µM
  relative viability: 0.319
[8]; first compound 0.1581 µM
  relative viability: 0.282
[8]; first compound 0.5 µM
  relative viability: 0.213
[9]; first compound 0.005 µM
  relative viability: 0.958
[9]; first compound 0.01581 µM
  relative viability: 0.914
[9]; first compound 0.05 µM
  relative viability: 0.989
[9]; first compound 0.1581 µM
  relative viability: 0.987
[9]; first compound 0.5 µM
  relative viability: 0.922
[10]; first compound 0.005 µM
  relative viability: 0.371
[10]; first compound 0.01581 µM
  relative viability: 0.447
[10]; first compound 0.05 µM
  relative viability: 0.384
[10]; first compound 0.1581 µM
  relative viability: 0.395
[10]; first compound 0.5 µM
  relative viability: 0.451
[11]; first compound 0.005 µM
  relative viability: 0.297
[11]; first compound 0.01581 µM
  relative viability: 0.391
[11]; first compound 0.05 µM
  relative viability: 0.338
[11]; first compound 0.1581 µM
  relative viability: 0.377
[11]; first compound 0.5 µM
  relative viability: 0.27
[12]; first compound 0.005 µM
  relative viability: 0.524
[12]; first compound 0.01581 µM
  relative viability: 0.516
[12]; first compound 0.05 µM
  relative viability: 0.522
[12]; first compound 0.1581 µM
  relative viability: 0.547
[12]; first compound 0.5 µM
  relative viability: 0.543
[13]; first compound 0.005 µM
  relative viability: 0.401
[13]; first compound 0.01581 µM
  relative viability: 0.447
[13]; first compound 0.05 µM
  relative viability: 0.445
[13]; first compound 0.1581 µM
  relative viability: 0.326
[13]; first compound 0.5 µM
  relative viability: 0.417
[14]; first compound 0.005 µM
  relative viability: 0.297
[14]; first compound 0.01581 µM
  relative viability: 0.208
[14]; first compound 0.05 µM
  relative viability: 0.3
[14]; first compound 0.1581 µM
  relative viability: 0.245
[14]; first compound 0.5 µM
  relative viability: 0.272
[15]; first compound 0.005 µM
  relative viability: 0.471
[15]; first compound 0.01581 µM
  relative viability: 0.47
[15]; first compound 0.05 µM
  relative viability: 0.478
[15]; first compound 0.1581 µM
  relative viability: 0.369
[15]; first compound 0.5 µM
  relative viability: 0.297
[16]; first compound 0.005 µM
  relative viability: 0.638
[16]; first compound 0.01581 µM
  relative viability: 0.732
[16]; first compound 0.05 µM
  relative viability: 0.562
[16]; first compound 0.1581 µM
  relative viability: 0.511
[16]; first compound 0.5 µM
  relative viability: 0.437
[17]; first compound 0.005 µM
  relative viability: 0.537
[17]; first compound 0.01581 µM
  relative viability: 0.553
[17]; first compound 0.05 µM
  relative viability: 0.538
[17]; first compound 0.1581 µM
  relative viability: 0.484
[17]; first compound 0.5 µM
  relative viability: 0.503
[18]; first compound 0.005 µM
  relative viability: 0.458
[18]; first compound 0.01581 µM
  relative viability: 0.478
[18]; first compound 0.05 µM
  relative viability: 0.512
[18]; first compound 0.1581 µM
  relative viability: 0.512
[18]; first compound 0.5 µM
  relative viability: 0.503
[19]; first compound 0.005 µM
  relative viability: 0.528
[19]; first compound 0.01581 µM
  relative viability: 0.538
[19]; first compound 0.05 µM
  relative viability: 0.549
[19]; first compound 0.1581 µM
  relative viability: 0.54
[19]; first compound 0.5 µM
  relative viability: 0.394
[20]; first compound 0.005 µM
  relative viability: 0.227
[20]; first compound 0.01581 µM
  relative viability: 0.227
[20]; first compound 0.05 µM
  relative viability: 0.211
[20]; first compound 0.1581 µM
  relative viability: 0.2
[20]; first compound 0.5 µM
  relative viability: 0.229
[21]; first compound 0.005 µM
  relative viability: 0.551
[21]; first compound 0.01581 µM
  relative viability: 0.641
[21]; first compound 0.05 µM
  relative viability: 0.638
[21]; first compound 0.1581 µM
  relative viability: 0.537
[21]; first compound 0.5 µM
  relative viability: 0.617
[22]; first compound 0.005 µM
  relative viability: 0.268
[22]; first compound 0.01581 µM
  relative viability: 0.303
[22]; first compound 0.05 µM
  relative viability: 0.35
[22]; first compound 0.1581 µM
  relative viability: 0.348
[22]; first compound 0.5 µM
  relative viability: 0.282
